Data from US7858606B2, “Triterpenoid derivatives” (Univerzita Palackeho v Olomouci, priority 2001, dated 2010).
Like-named read-outs stand apart in the source and are kept apart here.

Columns and labels:
Assay type in all cases: cell-based
[1] = system: Human T-lymphoblastic leukaemia cell line CEM; assay: MTT cytotoxicity screening assay, CEM; conditions: human T-lymphoblastic leukemia, 72 hours, read-out: TCS50
From the text: (§1) One of the parameters used as the basis for colorimetric assays is the metabolic activity of viable cells. For example, a microtiter assay which uses the tetrazolium salt MTT is now widely used to quantitate cell proliferation and cytotoxicity [Hajdúch M, Mihál V, Minarík J, Fáber E, Safárová M, Weigl E, Antálek P.: Cytotechnology, 1996, 19, 243-245]. For instance, this assay is used in drug screening programs and in chemosensitivity testing. Because tetrazolium salts are cleaved only by metabolically active cells, these assays exclusively detect viable cells. In the case of the MTT assay, yellow soluble tetrazolium salt is reduced to a coloured water-insoluble formazan salt. After it is solubilized, the formazan formed can easily and rapidly be quantified in a conventional ELISA plate reader at 570 nm (maximum absorbency). The quantity of reduced formazan corresponds to the number of vital cells in the culture.
(§2) Human T-lymphoblastic leukaemia cell line CEM was used for routine screening of these compounds. […] The cells were maintained in Nunc/Corning 80 cm^2 plastic tissue culture flasks and cultured in cell culture medium (DMEM with 5 g/l glucose, 2 mM glutamine, 100 U/ml penicillin, 100 μg/ml streptomycin, 10% foetal calf serum and sodium bicarbonate). Individual compounds were dissolved in 10% dimethylsulfoxide/saline, pH 8.0.
The cell suspensions that were prepared and diluted according to the particular cell type and the expected target cell density (2.500-30.000 cells per well based on cell growth characteristics) were added by pipette (80 μl) into 96/well microtiter plates. Inoculates were allowed a pre-incubation period of 24 hours at 37° C. and 5% CO2 for stabilisation. Four-fold dilutions of the intended test concentration were added at time zero in 20 μl aliquots to the microtiter plate wells. Usually, test compounds were evaluated at six 4-fold dilutions. In routine testing, the highest well concentration was 250 μM, but it may differ, depending on the agent. All drug concentrations were examined in duplicate. Incubations of cells with the test compounds lasted for 72 hours at 37° C., in 5% CO2 atmosphere and 100% humidity. At the end of the incubation period, the cells were assayed by using the MTT assay. Ten microliters of the MTT stock solution were pipetted into each well and incubated further for 1-4 hours. After this incubation period, formazan was solubilized by the addition of 100 μl/well of 10% SDS in water (pH=5.5) followed by further incubation at 37° C. overnight. The optical density (OD) was measured at 540 nm with the Labsystem iEMS Reader MF(UK). The tumour cell survival (TCS) was calculated using the following equitation: TCS=(ODdrug exposed well/mean ODcontrol wells)×100%. The TCS50 value, the drug concentration lethal to 50% of the tumour cells, was calculated from the obtained dose response curves.
To evaluate the anti-cancer activity of betulinines, their cytotoxic activity against CEM cell line was examined using the screening assay. Potent compounds were further tested against a panel of cell lines of different histogenetic and species origin (Table 2).

[2] = system: NIH3T3 mouse immortalised fibroblasts; assay: MTT cytotoxicity assay, NIH3T3; conditions: NIH3T3, mouse immortalised fibroblasts (non-malignant), 72 hours, read-out: TCS50
From the text: as §1, §2
(§3) The cell suspensions that were prepared and diluted according to the particular cell type and the expected target cell density (2.500-30.000 cells per well based on cell growth characteristics) were added by pipette (80 μl) into 96/well microtiter plates. […] Usually, test compounds were evaluated at six 4-fold dilutions. […] The optical density (OD) was measured at 540 nm with the Labsystem iEMS Reader MF(UK). The tumour cell survival (TCS) was calculated using the following equitation: TCS=(ODdrug exposed well/mean ODcontrol wells)×100%. The TCS50 value, the drug concentration lethal to 50% of the tumour cells, was calculated from the obtained dose response curves.

[3] = system: K562-ARA-C human promyelocytic leukemia, cytarabin resistant; assay: MTT cytotoxicity assay, K562-ARA-C; conditions: 72 hours, read-out: TCS50
From the text: as §1, §2, §3

[4] = system: Saos2 human; assay: MTT cytotoxicity assay, Saos2; conditions: p53−/−, Rb−/−, 72 hours, read-out: TCS50
From the text: as §1, §2, §3

[5] = system: human normal lymphocytes; assay: MTT cytotoxicity assay, normal lymphocytes; conditions: human normal lymphocytes (non-malignant), 72 hours, read-out: TCS50
From the text: as §1, §2, §3

[6] = system: U2OS human osteosarcoma; assay: MTT cytotoxicity assay, U2OS; conditions: p53+/−, Rb +/−, 72 hours, read-out: TCS50
From the text: as §1, §2, §3

[7] = system: CEM-DNR 1/C2 human T-lymphoblastic leukemia, daunorubicin resistant; assay: MTT cytotoxicity assay, CEM-DNR 1/C2; conditions: 72 hours, read-out: TCS50
From the text: as §1, §2, §3

[8] = system: BT549 human breast cancer; assay: MTT cytotoxicity assay, BT549; conditions: 72 hours, read-out: TCS50
From the text: as §1, §2, §3

[9] = system: K562-FLUD human promyelocytic leukemia, fludarabin resistant; assay: MTT cytotoxicity assay, K562-FLUD; conditions: 72 hours, read-out: TCS50
From the text: as §1, §2, §3

[10] = system: MEL-3 human melanoma; assay: MTT cytotoxicity assay, MEL-3; conditions: 72 hours, read-out: TCS50
From the text: as §1, §2, §3

[11] = system: K562-CdA human promyelocytic leukemia, cladrubin resistant; assay: MTT cytotoxicity assay, K562-CdA; conditions: 72 hours, read-out: TCS50
From the text: as §1, §2, §3

[12] = system: CEM-DNR bulk human T-lymphoblastic leukemia, daunorubicin resistant; assay: MTT cytotoxicity assay, CEM-DNR bulk; conditions: 72 hours, read-out: TCS50
From the text: as §1, §2, §3

[13] = system: SW620 human colon cancer, metastasis; assay: MTT cytotoxicity assay, SW620; conditions: read-out: TCS50
From the text: as §1, §2, §3

[14] = system: Caco-2 human colon cancer; assay: MTT cytotoxicity assay, Caco-2; conditions: 72 hours, read-out: TCS50
From the text: as §1, §2, §3

[15] = system: CEM-VCR bulk human T-lymphoblastic leukemia, vincristin resistant; assay: MTT cytotoxicity assay, CEM-VCR bulk; conditions: 72 hours, read-out: TCS50
From the text: as §1, §2, §3

[16] = system: CEM-VCR 1/F3 human T-lymphoblastic leukemia, vincristin resistant; assay: MTT cytotoxicity assay, CEM-VCR 1/F3; conditions: 72 hours, read-out: TCS50
From the text: as §1, §2, §3

[17] = system: B16F mouse melanoma, metastatic cell line; assay: MTT cytotoxicity assay, B16F; conditions: 72 hours, read-out: TCS50
From the text: as §1, §2, §3

[18] = system: U87MG human glioblastoma; assay: MTT cytotoxicity assay, U87MG; conditions: 72 hours, read-out: TCS50
From the text: as §1, §2, §3

[19] = system: CEM-VCR 3/D5 human T-lymphoblastic leukemia, vincristin resistant; assay: MTT cytotoxicity assay, CEM-VCR 3/D5; conditions: 72 hours, read-out: TCS50
From the text: as §1, §2, §3

[20] = system: HT-29 human colon cancer; assay: MTT cytotoxicity assay, HT-29; conditions: 72 hours, read-out: TCS50
From the text: as §1, §2, §3

[21] = system: HepG2 human hepatocellular carcinoma; assay: MTT cytotoxicity assay, HepG2; conditions: 72 hours, read-out: TCS50
From the text: as §1, §2, §3

[22] = system: B16 mouse melanoma cell line; assay: MTT cytotoxicity assay, B16; conditions: 72 hours, read-out: TCS50
From the text: as §1, §2, §3

[23] = system: LNCaP human prostate cancer; assay: MTT cytotoxicity assay, LNCaP; conditions: androgen dependent, 72 hours, read-out: TCS50
From the text: as §1, with “culture. […]” for “culture.”
(§4) The cell suspensions that were prepared and diluted according to the particular cell type and the expected target cell density (2.500-30.000 cells per well based on cell growth characteristics) were added by pipette (80 μl) into 96/well microtiter plates. […] Usually, test compounds were evaluated at six 4-fold dilutions. […] The optical density (OD) was measured at 540 nm with the Labsystem iEMS Reader MF(UK). […]

[24] = system: K562-GEM human promyelocytic leukemia, gemcitabin resistant; assay: MTT cytotoxicity assay, K562-GEM; conditions: 72 hours, read-out: TCS50
From the text: as §1, with “culture. […]” for “culture.”
as §4

[25] = system: A549 human lung adenocarcinoma; assay: MTT cytotoxicity assay, A549; conditions: 72 hours, read-out: TCS50
From the text: as §1, with “culture. […]” for “culture.”
as §4

[26] = system: DU145 human prostate cancer; assay: MTT cytotoxicity assay, DU145; conditions: androgen independent, Rb−/−, 72 hours, read-out: TCS50
From the text: as §1, with “culture. […]” for “culture.”
as §4

[27] = system: MCF-7 human breast cancer; assay: MTT cytotoxicity assay, MCF-7; conditions: estrogen dependent, p53+/+, Rb +/+, 72 hours, read-out: TCS50
From the text: as §1, with “culture. […]” for “culture.”
as §4

[28] = system: MDA-MB-238 human breast cancer; assay: MTT cytotoxicity assay, MDA-MB-238; conditions: estrogen independent, p53mut/mut, 72 hours, read-out: TCS50
From the text: as §1, with “culture. […]” for “culture.”
as §4

[29] = system: OVCAR-3 human ovarian cancer; assay: MTT cytotoxicity assay, OVCAR-3; conditions: 72 hours, read-out: TCS50
From the text: as §1, with “culture. […]” for “culture.”
as §4

Row | Molecule | IC50 [1] [µM] | IC50 [2] [µM] | IC50 [3] [µM] | IC50 [6] [µM] | IC50 [7] [µM] | IC50 [9] [µM] | IC50 [10] [µM] | IC50 [11] [µM] | IC50 [12] [µM] | IC50 [14] [µM] | IC50 [15] [µM] | IC50 [16] [µM] | IC50 [17] [µM] | IC50 [19] [µM] | IC50 [20] [µM] | IC50 [21] [µM] | IC50 [22] [µM] | IC50 [23] [µM] | IC50 [24] [µM] | IC50 [25] [µM] | further results
1 | 3β-acetoxy-lup-20(29)-en-28-oyl fluoride [II.55] | 19 | – | – | – | – | – | – | – | – | – | – | – | – | – | – | – | – | – | – | – | –
2 | C=C(C)[C@@H]1CC[C@]2(C(=O)O)CC[C@]3(C)[C@H](CC[C@@H]4[C@@]5(C)CC[C@H](O)C(C)(C)[C@@H]5CC[C@]43C)[C@@H]12 [Betulinic acid, betulinic acid, reference compound] | 250 | 250 | 250 | 250 | 250 | 250 | 2.7 | 250 | 250 | 20 | 69 | 19 | 4.6 | 24 | 250 | 3.6 | 36 | – | – | – | IC50 ([4]; SAOS-2, Saos2, human rhabdomyosarcoma): 250 µM; IC50 ([5]; Lymphocyte): 250 µM; IC50 ([8]; BT-549, p53mut/mut): 250 µM; IC50 ([13]; SW-620, 72 hours): 250 µM; IC50 ([18]; U-87 MG): 250 µM
3 | COC(=O)C12CCC3(C)C(CCC4C5(C)CCC(OC(C)=O)C(C)(C)C5CCC43C)C1=C(C(C)C)C(=O)C2=O (stereo not drawn) [II.4, methyl 3β-acetoxy-21,22-dioxolup-18-en-28-oate] | 7.2 | 97 | 6.4 | 4.3 | 10 | 4.9 | 5.9 | 5.2 | 5.2 | 8.1 | 28 | 38 | 68 | 13 | 5.6 | 5.1 | 35 | 3.3 | 5 | 6.7 | IC50 ([4]; Saos2, human rhabdomyosarcoma): 7.9 µM; IC50 [5]: 85 µM; IC50 [26]: 2 µM; IC50 ([8]; p53mut/mut): 15 µM; IC50 ([13]; 72 hours): 5.9 µM; IC50 [27]: 13 µM; IC50 [18]: 24 µM; IC50 [28]: 3.3 µM; IC50 [29]: 4.7 µM
4 | C=C(C=O)[C@@H]1CC[C@]2(C(=O)O)CC[C@]3(C)[C@H](CC[C@@H]4[C@@]5(C)CC[C@H](O)C(C)(C)[C@@H]5CC[C@]43C)[C@@H]12 [II.14, 3β-hydroxy-30-oxolup-20(29)-en-28-oic acid] | 3 | 16 | 1.6 | 3.9 | 1.6 | 1.3 | 3.7 | 2.1 | 3.3 | 7.7 | 7 | 5.9 | 12 | 7.8 | 4.7 | 7.1 | 9.3 | 3.6 | 2.4 | 3.3 | IC50 ([4]; Saos2, human rhabdomyosarcoma): 4.8 µM; IC50 [5]: 25 µM; IC50 [26]: 2.8 µM; IC50 ([8]; p53mut/mut): 6.3 µM; IC50 ([13]; 72 hours): 5.9 µM; IC50 [27]: 4.3 µM; IC50 [18]: 8.4 µM; IC50 [28]: 2.4 µM; IC50 [29]: 2.6 µM
5 | C=C(C)C1CCC2(C(=O)OC)CCC3(C)C(CCC4C5(C)CCC(OC(=O)OCC(O)CO)C(C)(C)C5CCC43C)C12 (stereo not drawn) [II.45, 17β-methoxycarbonyl-28-norlup-20(29)-en-3β-yl(2,3-dihydroxypropyl)carbonate] | 13 | – | – | – | – | – | – | – | – | – | – | – | – | – | – | – | – | – | – | – | –
